Results taken from US10537097B2, “Methods for treating red blood cells” (VIACELL, LLC., priority 2010, dated 2020).
Values belong to the compound of their own block, whether it stands above or below them.

Experiments:
[1] = Solubility of nucleoside / concentrated composition; assay type: physicochemical; conditions: with L-arginine in an equimolecular solution; room temperature
stored RBCs = test: 2,3-DPG level of stored RBCs after incubation with storage and/or rejuvenating composition (Roche 2,3-DPG kit); assay type: cell-based; conditions: 60 minutes at 37° C.
Procedure: A storage and/or rejuvenating composition that includes D-ribose, inosine, sodium pyruvate, and inorganic phosphate, all at a 300 mM concentration as a slurry was prepared. When used to store and/or rejuvenate RBCs, the slurry is diluted 30-fold to a final concentration of 10 mM to form a solution. […] In a study, RBCs were collected and stored for an average of 21 days at 4° C. according to standard blood banking practice. Various RBC storage and/or rejuvenating compositions were added to the 21-day old stored RBCs and held at 37° C. for one to four hours before being tested for 2,3-DPG concentrations. […] A normal 2,3-DPG concentration of RBC immediately upon harvest is 4.0 μmol/ml. […] An increase to 1.0 μmol/ml is considered a significant improvement.

Concentration at which inosine remained in solution [1]: above 50 mM
SMILES: OC[C@H]1O[C@@H](n2cnc3c(O)ncnc32)[C@H](O)[C@@H]1O [inosine]

SMILES: O=C[C@H](O)[C@H](O)[C@H](O)COP(=O)(O)O [ribose-5-phosphate]
Rejuvenation (stored RBCs; varying concentrations replacing inosine, with 10 mM each D-ribose, sodium pyruvate, inorganic phosphate): Rejuvenation was not observed

SMILES: Nc1nc2c(ncn2[C@@H]2O[C@H](CO)[C@@H](O)[C@H]2O)c(=O)[nH]1 [Guanosine]
2,3-DPG (stored RBCs; 1 mM guanosine with 10 mM each inorganic phosphate and D-ribose, no sodium pyruvate): 0.47 µmol/mL
2,3-DPG (stored RBCs; 5 mM guanosine with 10 mM each inorganic phosphate and D-ribose, no sodium pyruvate): 1.30 µmol/mL
2,3-DPG (stored RBCs; 10 mM guanosine with 10 mM each inorganic phosphate and D-ribose, no sodium pyruvate): 1.10 µmol/mL
Rejuvenation (stored RBCs; guanosine at indicated concentration with 10 mM each inorganic phosphate and D-ribose, no sodium pyruvate): Rejuvenation was observed
